In patent publication US6211155A, “Peptide conjugates derived from thymic hormones, their use as a medicament and compositions containing them” (Institut European de Biologie Cellulaire, priority 1995, dated 2001):
Where no end group is shown, it is not given here.

How the values were obtained:
[1] = test system: Thy 1.2+ thymocytes of the epidermis; test: Thy 1.2+ epidermal cell density after topical application to mouse ear (immunofluorescence); format: in vivo, C57-BL/6 mice; details: for Number of Thy 1.2+ cells per mm^2 of epidermis, batch 1 / Number of Thy 1.2+ cells per mm^2 of epidermis, batch 2 / Number of Thy 1.2+ cells per mm^2 of epidermis, batch 3 / Number of Thy 1.2+ cells per mm^2 of epidermis, batch 4 / Number of Thy 1.2+ cells per mm^2 of epidermis, Mean: C 57 BL/6 mice; for Number of Thy 1.2+ cells per mm^2 of epidermis, Mean: 4 batches; for Thy 1.2+ cells % T: relative to PG controls
Description: (§1) I--Experimental Samples--Code: ETF
(§2) In solution in propylene glycol at a concentration of 10^-5 M/ml
(§3) 5 to 7-week-old male C 57-BL/6 mice, which are divided into groups of 4 per cage, and which have free access to water and food and which are subjected to a photoperiod of 12 h of light per 24 hours, are given a topical application of the peptide in propylene glycol (50 μl vol) on the dorsal surface of the ear daily for 5 consecutive days.
(§4) The animals are sacrificed on day 6. The ears are removed, with the dorsal and ventral surfaces being separated.
(§5) The tissues of the dorsal surface are immersed in Na EDTA (0.020 M) at 37° C. for 2 h.
(§6) After incubation, the epidermis is removed in the form of an intact sheet, fixed with acetone and rehydrated in PBS (phosphate buffer).
(§7) The Thy 1-2+ and Ia+ EDC (epidermal dendritic cells) are identified by indirect immunofluorescence double labeling.
(§8) In the case of each epidermal sheet, the number of cells per mm^2 is determined using the peripheral regions of the same surface.
The Thy 1.2+ EDC were identified by indirect immunofluorescence double labeling. The epidermal sheets were fixed with acetone and then rehydrated in PBS.
The tissues were labeled simultaneously, at 4° C. for 16 h, with mouse anti-Thy 1.2+ antibody which was diluted 1:100. The tissue samples were washed three times in PBS for 60 min and then incubated, at 37° C. for 60 min, either with goat antimouse antibody which was coupled to rhodamine and diluted 1:20, or with goat antirabbit antibody which was coupled to fluorescein (fluorescine and diluted 1:20 in PBS. The tissues were then washed in PBS before being mounted as previously described.
(§9) In the case of each epidermal sheet, the number of Ia+ Langerhans cells or Thy 1.2+ EDCs per square millimeter was determined by means of immunofluorescence, using a confocal Zeiss microscope which was equipped for this purpose, in four peripheral areas of the same surface. At least four animals were studied in each of the groups. The density of Ia+ Langerhans cells and Thy 1.2+ EDCs is shown for each measurement.

[2] = test system: Ia+ Langerhans cells; test: Ia+ Langerhans cell density after topical application to mouse ear; format: in vivo, C57-BL/6 mice; details: for Number of Ia+ cells per mm^2 of epidermis, batch 1 / Number of Ia+ cells per mm^2 of epidermis, batch 2 / Number of Ia+ cells per mm^2 of epidermis, batch 3 / Number of Ia+ cells per mm^2 of epidermis, batch 4 / Number of Ia+ cells per mm^2 of epidermis, Mean: C 57 BL/6 mice; for Number of Ia+ cells per mm^2 of epidermis, Mean: 4 batches; for Ia+ cells %: relative to PG controls
Description: as §1, §2, §3, §4, §5, §6, §7, §8
The EDC (epidermal dendritic cells) carrying the Ia+ marker were identified using an anti-Ia+ monoclonal antibody.
The epidermal sheets are fixed with acetone and then incubated, at 37° C. for 1 h, in the presence of the anti-Ia+ monoclonal antibody, which has been labeled by the indirect immunoperoxidase method (Kit).
After having been incubated at 37° C. for 10 minutes with a solution of aminoethylcarbazole, the preparation is washed with PBS.
as §9

| Substance | Number of Thy 1.2+ cells per mm^2 of epidermis, batch 1 ([1]; dose 0.10 Nanog.) | Number of Thy 1.2+ cells per mm^2 of epidermis, batch 2 ([1]; dose 0.10 Nanog.) | Number of Thy 1.2+ cells per mm^2 of epidermis, batch 3 ([1]; dose 0.10 Nanog.) | Number of Thy 1.2+ cells per mm^2 of epidermis, batch 4 ([1]; dose 0.10 Nanog.) | Number of Thy 1.2+ cells per mm^2 of epidermis, Mean ([1]; dose 0.10 Nanog.) | Thy 1.2+ cells % T ([1]; dose 0.10 Nanog.) | Number of Thy 1.2+ cells per mm^2 of epidermis, batch 1 ([1]; dose 0.50 Nanog.) | Number of Thy 1.2+ cells per mm^2 of epidermis, batch 2 ([1]; dose 0.50 Nanog.) | Number of Thy 1.2+ cells per mm^2 of epidermis, batch 3 ([1]; dose 0.50 Nanog.) | Number of Thy 1.2+ cells per mm^2 of epidermis, batch 4 ([1]; dose 0.50 Nanog.) | Number of Thy 1.2+ cells per mm^2 of epidermis, Mean ([1]; dose 0.50 Nanog.) | Thy 1.2+ cells % T ([1]; dose 0.50 Nanog.) | Number of Thy 1.2+ cells per mm^2 of epidermis, batch 1 ([1]; dose 1.00 Nanog.) | Number of Thy 1.2+ cells per mm^2 of epidermis, batch 2 ([1]; dose 1.00 Nanog.) | Number of Thy 1.2+ cells per mm^2 of epidermis, batch 3 ([1]; dose 1.00 Nanog.) | Number of Thy 1.2+ cells per mm^2 of epidermis, batch 4 ([1]; dose 1.00 Nanog.) | Number of Thy 1.2+ cells per mm^2 of epidermis, Mean ([1]; dose 1.00 Nanog.) | Thy 1.2+ cells % T ([1]; dose 1.00 Nanog.) | Number of Ia+ cells per mm^2 of epidermis, batch 1 ([2]; dose 0.10 Nanog.) | Number of Ia+ cells per mm^2 of epidermis, batch 2 ([2]; dose 0.10 Nanog.) | also measured |
| --- | --- | --- | --- | --- | --- | --- | --- | --- | --- | --- | --- | --- | --- | --- | --- | --- | --- | --- | --- | --- | --- |
| Adipoyl-Ala-Lys-Ser-Gln-Gly-Gly-Ser-Asn-NH2 (AKSQGGSN-NH2; not fully specified (N-terminus)) [ETF-III, A of the tested sample not restated] | 168 cells per mm^2 | 165 cells per mm^2 | 180 cells per mm^2 | 176 cells per mm^2 | 172.25 cells per mm^2 | 95% | 190 cells per mm^2 | 190 cells per mm^2 | 205 cells per mm^2 | 200 cells per mm^2 | 196.25 cells per mm^2 | 122% | 200 cells per mm^2 | 220 cells per mm^2 | 216 cells per mm^2 | 210 cells per mm^2 | 211.50 cells per mm^2 | 140% | 376 cells per mm^2 | 382 cells per mm^2 | Number of Ia+ cells per mm^2 of epidermis, batch 3 ([2]; dose 0.10 Nanog.): 387 cells per mm^2; Number of Ia+ cells per mm^2 of epidermis, batch 4 ([2]; dose 0.10 Nanog.): 399 cells per mm^2; Number of Ia+ cells per mm^2 of epidermis, Mean ([2]; dose 0.10 Nanog.): 386.00 cells per mm^2; Ia+ cells % ([2]; dose 0.10 Nanog.): 277%; Number of Ia+ cells per mm^2 of epidermis, batch 1 ([2]; dose 0.50 Nanog.): 380 cells per mm^2; Number of Ia+ cells per mm^2 of epidermis, batch 2 ([2]; dose 0.50 Nanog.): 388 cells per mm^2; Number of Ia+ cells per mm^2 of epidermis, batch 3 ([2]; dose 0.50 Nanog.): 299 cells per mm^2; Number of Ia+ cells per mm^2 of epidermis, batch 4 ([2]; dose 0.50 Nanog.): 388 cells per mm^2; Number of Ia+ cells per mm^2 of epidermis, Mean ([2]; dose 0.50 Nanog.): 363.75 cells per mm^2; Ia+ cells % ([2]; dose 0.50 Nanog.): 255%; Number of Ia+ cells per mm^2 of epidermis, batch 1 ([2]; dose 1.00 Nanog.): 305 cells per mm^2; Number of Ia+ cells per mm^2 of epidermis, batch 2 ([2]; dose 1.00 Nanog.): 400 cells per mm^2; Number of Ia+ cells per mm^2 of epidermis, batch 3 ([2]; dose 1.00 Nanog.): 398 cells per mm^2; Number of Ia+ cells per mm^2 of epidermis, batch 4 ([2]; dose 1.00 Nanog.): 410 cells per mm^2; Number of Ia+ cells per mm^2 of epidermis, Mean ([2]; dose 1.00 Nanog.): 378.25 cells per mm^2; Ia+ cells % ([2]; dose 1.00 Nanog.): 269% |
| A-Pyr-Ala-Lys-Ser-Gln-Gly-Gly-Ser-Asn-NH2 (AKSQGGSN; not fully specified (N-terminus, C-terminus); printed as A-Pyr-Ala-Lys-Ser-Gln-Gly-Gly-Ser-Asn-NH2) [ETF-I, A of the tested sample not restated] | 197 cells per mm^2 | 180 cells per mm^2 | 192 cells per mm^2 | 207 cells per mm^2 | 194.00 cells per mm^2 | 120% | 200 cells per mm^2 | 208 cells per mm^2 | 199 cells per mm^2 | 219 cells per mm^2 | 206.50 cells per mm^2 | 134% | 214 cells per mm^2 | 210 cells per mm^2 | 208 cells per mm^2 | 226 cells per mm^2 | 214.50 cells per mm^2 | 143% | 368 cells per mm^2 | 388 cells per mm^2 | Number of Ia+ cells per mm^2 of epidermis, batch 3 ([2]; dose 0.10 Nanog.): 378 cells per mm^2; Number of Ia+ cells per mm^2 of epidermis, batch 4 ([2]; dose 0.10 Nanog.): 395 cells per mm^2; Number of Ia+ cells per mm^2 of epidermis, Mean ([2]; dose 0.10 Nanog.): 382.25 cells per mm^2; Ia+ cells % ([2]; dose 0.10 Nanog.): 273%; Number of Ia+ cells per mm^2 of epidermis, batch 1 ([2]; dose 0.50 Nanog.): 360 cells per mm^2; Number of Ia+ cells per mm^2 of epidermis, batch 2 ([2]; dose 0.50 Nanog.): 392 cells per mm^2; Number of Ia+ cells per mm^2 of epidermis, batch 3 ([2]; dose 0.50 Nanog.): 386 cells per mm^2; Number of Ia+ cells per mm^2 of epidermis, batch 4 ([2]; dose 0.50 Nanog.): 399 cells per mm^2; Number of Ia+ cells per mm^2 of epidermis, Mean ([2]; dose 0.50 Nanog.): 384.25 cells per mm^2; Ia+ cells % ([2]; dose 0.50 Nanog.): 275%; Number of Ia+ cells per mm^2 of epidermis, batch 1 ([2]; dose 1.00 Nanog.): 372 cells per mm^2; Number of Ia+ cells per mm^2 of epidermis, batch 2 ([2]; dose 1.00 Nanog.): 410 cells per mm^2; Number of Ia+ cells per mm^2 of epidermis, batch 3 ([2]; dose 1.00 Nanog.): 390 cells per mm^2; Number of Ia+ cells per mm^2 of epidermis, batch 4 ([2]; dose 1.00 Nanog.): 412 cells per mm^2; Number of Ia+ cells per mm^2 of epidermis, Mean ([2]; dose 1.00 Nanog.): 396.00 cells per mm^2; Ia+ cells % ([2]; dose 1.00 Nanog.): 286% |
| A-Arg-Lys-Asp-Val-NH2 (RKDV; not fully specified (N-terminus, C-terminus)) [ETF-XIX, A not specified for the tested sample] | 216 cells per mm^2 | 210 cells per mm^2 | 219 cells per mm^2 | 212 cells per mm^2 | 214.25 cells per mm^2 | 143% | 220 cells per mm^2 | 215 cells per mm^2 | 228 cells per mm^2 | 216 cells per mm^2 | 219.75 cells per mm^2 | 149% | 227 cells per mm^2 | 238 cells per mm^2 | 230 cells per mm^2 | 225 cells per mm^2 | 230.00 cells per mm^2 | 161% | 360 cells per mm^2 | 390 cells per mm^2 | Number of Ia+ cells per mm^2 of epidermis, batch 3 ([2]; dose 0.10 Nanog.): 378 cells per mm^2; Number of Ia+ cells per mm^2 of epidermis, batch 4 ([2]; dose 0.10 Nanog.): 320 cells per mm^2; Number of Ia+ cells per mm^2 of epidermis, Mean ([2]; dose 0.10 Nanog.): 362.00 cells per mm^2; Ia+ cells % ([2]; dose 0.10 Nanog.): 253%; Number of Ia+ cells per mm^2 of epidermis, batch 1 ([2]; dose 0.50 Nanog.): 388 cells per mm^2; Number of Ia+ cells per mm^2 of epidermis, batch 2 ([2]; dose 0.50 Nanog.): 398 cells per mm^2; Number of Ia+ cells per mm^2 of epidermis, batch 3 ([2]; dose 0.50 Nanog.): 386 cells per mm^2; Number of Ia+ cells per mm^2 of epidermis, batch 4 ([2]; dose 0.50 Nanog.): 400 cells per mm^2; Number of Ia+ cells per mm^2 of epidermis, Mean ([2]; dose 0.50 Nanog.): 393.00 cells per mm^2; Ia+ cells % ([2]; dose 0.50 Nanog.): 283%; Number of Ia+ cells per mm^2 of epidermis, batch 1 ([2]; dose 1.00 Nanog.): 400 cells per mm^2; Number of Ia+ cells per mm^2 of epidermis, batch 2 ([2]; dose 1.00 Nanog.): 410 cells per mm^2; Number of Ia+ cells per mm^2 of epidermis, batch 3 ([2]; dose 1.00 Nanog.): 438 cells per mm^2; Number of Ia+ cells per mm^2 of epidermis, batch 4 ([2]; dose 1.00 Nanog.): 415 cells per mm^2; Number of Ia+ cells per mm^2 of epidermis, Mean ([2]; dose 1.00 Nanog.): 415.75 cells per mm^2; Ia+ cells % ([2]; dose 1.00 Nanog.): 306% |
